For test [1], the system named is AMV reverse transcriptase. Nature of the test: Reverse transcription reaction (RETROscript kit), dCTP[α-32P] incorporation. Format: biochemical. The conditions noted are these: 20 mM reducing reagent. The protocol: (§1) FIG. 2. […] Reverse transcriptions were performed using the RETROscript™ kit (Ambion, Inc.). Mouse total RNA in DEPC-treated water was reverse transcribed with either MMLV or AMV reverse transcriptase in the presence or absence of 20 mM DTT. dCTP[α^32P] was included in the reactions to measure the efficiency of reverse transcription. Following incubation at 42° C. for 1 h, 5 μl of each reaction was subjected to TCA precipitation to measure the amount of dCTP[α^32P] incorporated into cDNA by reverse transcription.
(§2) The reverse transcription reactions were performed using the RETROscript™ kit (Ambion, Inc.). The following were assembled with or without 20 mM of the reducing reagents in a final volume of 19 μl: dNTPs (0.5 mM each), oligo dT (5 μM), 0.4 μl dCTP[α-^32p] (3000 Ci/mmol), 10 mM Tris-HCl (pH 8.3): 50 mM KCl: 1.5 mM MgCl2, mouse brain total RNA (4 μg). The reaction mixtures were incubated at 65° C. for 10 minutes. 1 μl (100 units) of AMV or MMLV reverse transcriptase were added and then the reactions were incubated at 42° C. for 1 hour. Reverse transcription by either enzyme was not inhibited by DTT (FIG. 2) or by DTE or β-mercaptoethanol.

The target of test [2] is T1, MMLV reverse transcriptase (Moloney murine leukemia virus, UniProt P03355).
T1 construct: purchased Ambion, Inc
The description is as above. The class given is biochemical. The conditions noted are these: 20 mM reducing reagent. The protocol:
as §1, §2

The source of these data is US6825340B2, “Methods and reagents for inactivating ribonucleases” (Ambion, Inc., priority 1998, dated 2004).

“Also recorded” adds a separate entry of the source.

`O[C@H](CS)[C@H](O)CS` [DTT, dithiothreitol]: in test [1], the “inhibition of reverse transcription by AMV reverse transcriptase” value is listed as “does not inhibit; also recorded: not inhibited”. Besides, the “inhibition of reverse transcription by MMLV reverse transcriptase” value in test [2] is on record as “does not inhibit; also recorded: not inhibited”.
